Reference: US20250049948A1, “NOVEL IONIZABLE LIPIDS AND LIPID NANOPARTICLES AND METHODS OF USING THE SAME” (Sail Biomedicines, Inc., priority 2021, published 2025)

Legend:
Balb/c mice = test: In-vivo bioluminescent imaging of LNP compositions (Example 6); conditions: mRNA dose 5 μg FLUC (CRE/FLUC 1:1 LNP); for Bioluminescence (IV) Liver / Bioluminescence (IV) Lung / Bioluminescence (IV) Spleen / Bioluminescence (IV) Whole Body: 4-6 hours post-dose; for Spleen: Liver Ratio: intravenous
[1] = LNP size and polydispersity, Zetasizer Ultra; assay type: physicochemical
Method: (§1) For each LNP composition, the lipid mix and mRNA solution were mixed at a 1:3 ratio by volume, respectively, on a NanoAssemblr Ignite (Precision Nanosystems) at a total flow rate of 9 mL/min. The resulting compositions were then loaded into Slide-A-Lyzer G2 dialysis cassettes (10 k MWCO) and dialyzed in 200 times sample volume of 1×PBS for 2 hours at room temperature with gentle stirring. The PBS was refreshed, and the compositions were further dialyzed for at least 14 hours at 4° C. with gentle stirring. The dialyzed compositions were then collected and concentrated by centrifugation at 3000×g using Amicon Ultra centrifugation filters (100 k MWCO). The concentrated particles were characterized for size, polydispersity, and particle concentration using Zetasizer Ultra (Malvern Panalytical) and for mRNA encapsulation efficiency using Quant-iT RiboGreen RNA Assay Kit (ThermoFisher Scientific).

[2] = mRNA encapsulation efficiency, Quant-iT RiboGreen RNA Assay; assay type: physicochemical
Method: as §1

SMILES | Bioluminescence (IV) Liver (Balb/c mice) | Bioluminescence (IV) Lung (Balb/c mice) | Bioluminescence (IV) Spleen (Balb/c mice) | Bioluminescence (IV) Whole Body (Balb/c mice) | Spleen: Liver Ratio (Balb/c mice) | PDI ([1]; LNP with CRE/FLUC 1:1 mRNA) | Size (nm) ([1]; LNP with CRE/FLUC 1:1 mRNA) | % EE ([2]; LNP with CRE/FLUC 1:1 mRNA) | PDI ([1]; LNP with EGFP mRNA) | Size (nm) ([1]; LNP with EGFP mRNA) | % EE ([2]; LNP with EGFP mRNA)
CCCCCC(CCCCC)CCCOC(=O)CCCCCCCN(CCCCCCCC(=O)OCCCC(CCCCC)CCCCC)CCCCN(C)C [Compound 2129, bis(4-pentylnonyl) 8,8′-((4-(dimethylamino)butyl)azanediyl) dioctanoate] | 1.4E + 05 | 2.1E + 03 | 9.2E + 03 | 1.9E + 04 | 0.066 | 0.07 | 81.1 nm | 97.0% |  |  | 
CCCCCCC(CCCCCC)CCCOC(=O)CCCCCN(CCCCCC(=O)OCCCC(CCCCCC)CCCCCC)C(=O)CCCN(C)C [Compound 2134, bis(4-hexyldecyl) 6,6′-((4-(dimethylamino)butanoyl)azanediyl) dihexanoate] | 7.5E + 04 | 1.4E + 03 | 4.3E + 03 | 5.4E + 03 | 0.063 | 0.11 | 92.9 nm | 98.3% | 0.20 | 107.1 nm | 98.3%
CCCCCC(CCCCC)CCCOC(=O)CCCCCCCN(CCCCCCCC(=O)OCCCC(CCCCC)CCCCC)CCC(O)CN(C)C (stereo not shown) [Compound 2138, bis(4-pentylnonyl) 8,8′-((4-(dimethylamino)-3-hydroxybutyl)azanediyl) dioctanoate] | 1.7E + 05 | 1.2E + 03 | 2.8E + 04 | 3.7E + 03 | 0.236 | 0.35 | 112.7 nm | 97% |  |  | 
CCCCCCC(CCCCCC)CCCOC(=O)CCCCCN(CCCCCC(=O)OCCCC(CCCCCC)CCCCCC)C(=O)CCN1CCCC1 [Compound 2143, bis(4-hexyldecyl) 6,6′-((3-(pyrrolidin-1-yl)propanoyl)azanediyl)dihexanoate] | 1.3E + 05 | 6.3E + 03 | 6.5E + 05 | 1.7E + 05 | 5.050 | 0.11 | 78.6 nm | 97.1% | 0.08 | 83.4 nm | 97.3%
CCCCCC(CCCCC)CCCOC(=O)CCCCCCCN(CCCCCCCC(=O)OCCCC(CCCCC)CCCCC)C(=O)CCCN(C)C [Compound 2132, bis(4-pentylnonyl) 8,8′-((4-(dimethylamino)butanoyl)azanediyl) dioctanoate] | 1.4E + 05 | 1.7E + 03 | 2.5E + 04 | 7.0E + 03 | 0.212 | 0.13 | 76.3 nm | 97.7% | 0.20 | 90.4 nm | 97.2%
